Results taken from patent publication US20220348590A1, “CYCLOOXYGENASE-2 INHIBITORS AND USES THEREOF” (The Board Institute, Inc., priority 2019, published 2022).
Where two headings read alike, the source gives them in different places.

Target: T1, human recombinant COX2 (hCOX2) (UniProt P35354)
T1 sequence (P35354 1-604): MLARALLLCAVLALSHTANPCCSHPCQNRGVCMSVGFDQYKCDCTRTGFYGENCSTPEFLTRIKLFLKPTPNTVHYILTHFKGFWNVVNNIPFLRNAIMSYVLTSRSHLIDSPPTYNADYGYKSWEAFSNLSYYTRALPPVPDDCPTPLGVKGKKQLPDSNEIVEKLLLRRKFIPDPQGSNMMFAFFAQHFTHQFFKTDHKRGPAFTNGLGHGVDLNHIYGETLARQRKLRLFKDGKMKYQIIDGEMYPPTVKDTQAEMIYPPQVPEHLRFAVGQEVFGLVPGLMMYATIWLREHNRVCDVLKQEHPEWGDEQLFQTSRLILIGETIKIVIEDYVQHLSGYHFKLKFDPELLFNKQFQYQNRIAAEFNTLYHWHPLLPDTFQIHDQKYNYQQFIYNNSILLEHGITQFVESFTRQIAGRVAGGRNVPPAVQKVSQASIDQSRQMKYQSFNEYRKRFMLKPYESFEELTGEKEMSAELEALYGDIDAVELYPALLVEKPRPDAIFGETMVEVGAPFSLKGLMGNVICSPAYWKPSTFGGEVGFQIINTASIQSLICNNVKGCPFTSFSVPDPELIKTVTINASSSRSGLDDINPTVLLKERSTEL
Assay: LCMS-based COX2 enzymatic inhibition assay (PGE2 quantification)
Type: biochemical
Set-up: COX2 2 minutes pge2/pge2d4 area ratio Avg; other: 2 minutes; readout pge2/pge2d4 area ratio; average; COX2 2 minutes pge2/pge2d4 area ratio Avg; LLE; average LLE; COX2 2 minutes pge2 area (counts) Avg; readout pge2 area (counts); other: 2 min; "ovine COX2 (oCOX2), human recombinant COX2 (hCOX2)"
Conditions: for COX2 2 minutes pge2/pge2d4 area ratio Avg. LLE / COX2 2 minutes pge2 area (counts) Avg. LLE / COX2 10 minutes pge2 area (counts) Avg. LLE: average LLE; for IC50: average
Description: We have adapted a previously reported cyclooxygenase enzymatic assay utilizing LCMS quantification of PGE2 as the product of COX-1 and COX2 catalyzed conversion of arachidonic acid to evaluate the binding properties of newly synthesized ligands [Cao, 2011]. These optimized and miniaturized (384-well plates) LCMS-based COX-1 and COX2 enzymatic assays enabled us to quickly evaluate newly synthesized ligands for COX2 binding affinity and selectivity vs COX-1. Using a shorter ligand-enzyme incubation time in the LCMS assay (2 minutes vs 10 minutes) also permitted us to prioritize ligands with faster binding kinetics. Considering the relatively slow on-rate kinetics of known coxibs, due to their 3-step binding mechanism [Marnett, 2009], we believe that optimizing this critical parameter will be key to the successful development of a COX2 PET tracer. Using these enzymatic assays, we have evaluated>200 newly synthesized ligands against COX2 and >20 ligands against COX-1. Another critical property necessary for a good PET radiotracer is to have low non-specific binding (NSB) to increase the free fraction and maximize the signal to noise ratio. This property can be evaluated using in-vitro protein binding assays, and we have now evaluated>50 newly synthesized ligands in mouse, rat and human plasma protein binding (PPB) assays as well as >15 ligands in a mouse brain protein binding (BPB) assay.
Ovine COX-1 (oCOX-1), ovine COX2 (oCOX2), human recombinant COX2 (hCOX2), arachidonic acid, PGE2, d4-PGD2, and […] (labeled with deuterium atoms at positions 3 and 4) were purchased from Cayman Chemicals (Ann Arbor, Mich.). The cofactors (−)epinephrine and hematin, and the COX inhibitors indomethacin, resveratrol and diclofenac were purchased from Sigma-Aldrich (St. Louis, Mo.). Celecoxib was purchased from 3B PharmaChem International (Wuhan, China). All organic solvents were HPLC grade or better and were purchased from Thermo Fisher (Hanover Park, Ill.). Formic acid was purchased from EMD Chemicals (San Diego, Calif.). Purified water was prepared by using a Millipore Milli-Q purification system (Millipore, Billerica, Mass.). All other chemicals and solvents were ACS reagent grade, unless stated otherwise.
In an Eppendorf tube, 146 μL of 100 mM Tris.HCl (pH 8.0) buffer, 2 μL of 100 μM hematin (co-factor) and 10 μL of 40 mM L-epinephrine (co-factor) were mixed at room temperature. Next, 20 μL of Tris.HCl (pH 8.0) buffer containing 0.2 μg COX2 or 0.1 μg COX-1 (approximately 1 unit of enzyme; 1 unit COX utilizes 1 nmol 02/mg/min at 37° C.) was added, and the solution was incubated at room temperature for 2 min. A 2 μL aliquot of the COX inhibitor in DMSO was added to the enzyme solution and preincubated at 37° C. for 10 min. Negative controls were identical except that 2 μL aliquots of DMSO without inhibitor were used instead.
Each COX reaction was initiated by adding 20 μL of arachidonic acid in Tris.HCl (pH 8.0) buffer to give a final concentration of 5 μM; and the reaction was terminated after 2 min by adding 20 μL of 2.0 M HCl. The surrogate standards d4-PGE2 and d4-PGD2 (10 μL aliquot of 50 ng/mL solution in methanol) were added to correct for errors or degradation during sample handling and for variation in injection volume or instrument response during LC-MS-MS. After 30 min, PGE2, PGD2 and their surrogate standards were extracted from each incubation mixture using 800 μL hexane/ethyl acetate (50:50, v/v). The organic phase was removed, evaporated to dryness, and reconstituted in 100 μL methanol/water (50:50, v/v) for analysis using LC-MS-MS.
The concentration of PGE2 in each sample was measured using LC-MS-MS, and the percent of COX inhibition by each test solution was determined by comparing the amount of PGE2 produced in the experiment with that produced in the negative control incubation. The formation of PGD2 was measured for quality control purposes, since the levels of PGD2 should be proportional to those of PGE2. […]

[1] = 2 minutes, readout pge2/pge2d4 area ratio
[2] = 2 minutes, readout pge2/pge2d4 area ratio, read-out: COX2 2 minutes pge2/pge2d4 area ratio Avg. IC50
[3] = 2 minutes, readout pge2 area (counts)
[4] = 2 minutes, readout pge2 area (counts), read-out: COX2 2 minutes pge2 area (counts) Avg. IC50
[5] = read-out: COX2 2 minutes pge2/pge2d4 area ratio Avg. IC50 (microM), 2 minutes, readout pge2/pge2d4 area ratio
[6] = 10 minutes, readout pge2 area (counts)
[7] = 10 minutes, readout pge2 area (counts), read-out: COX2 10 minutes pge2 area (counts) Avg. IC50

Row | Compound | COX2 2 minutes pge2/pge2d4 area ratio Avg. LLE [1] | IC50 [2] [µM] | COX2 2 minutes pge2 area (counts) Avg. LLE [3] | IC50 [4] [µM] | IC50 [5] [µM] | COX2 10 minutes pge2 area (counts) Avg. LLE [6] | IC50 [7] [µM]
1 | CS(=O)(=O)c1ccc(-c2cccc(C3CC3c3ccoc3)n2)cc1 (single isomer, unassigned) [Compound 115, 2-[2-(furan-3-yl)cyclopropyl]-6-(4-methanesulfonylphenyl)pyridine] | 2.867 | 0.107 | 2.982 | 0.0632 | – | – | –
2 | CS(=O)(=O)c1ccc(-c2cncc(NCc3ncco3)n2)cc1 [Compound 246] | 4.306 | 3.27 | 4.2875 | 3.41 | – | – | –
3 | CS(=O)(=O)c1ccc(-c2cccc(NCc3cc[nH]c3)n2)cc1 [Compound 185] | 3.623 | 0.61 | 3.623 | 0.572 | – | – | –
4 | CC(C)Oc1ncc(NCc2cccs2)nc1-c1ccc(S(C)(=O)=O)cc1 [Compound 75] | 3.984 | 0.0454 | 3.887 | 0.0623 | – | – | –
5 | Cc1ccc(COc2cncc(-c3ccc(S(C)(=O)=O)cc3)n2)cc1 [Compound 309] | – | – | 2.514 | – | 5.2 | – | –
6 | Cn1cc(CNc2cncc(-c3ccc(S(C)(=O)=O)cc3)n2)cn1 [Compound 237] | 4.753 | 2.56 | 4.8121 | 2.23 | – | – | –
7 | CS(=O)(=O)c1ccc(-c2ccnc(NCc3ccco3)c2)cc1 [Compound 283] | – | – | – | – | 5.2 | – | –
8 | CS(=O)(=O)c1ccc(-c2cccc(OCc3ccc(Cl)s3)n2)cc1 [Compound 69] | 2.722 | 0.0406 | 2.834 | 0.0288 | – | – | –
9 | COc1ncc(NCc2ccccn2)nc1-c1ccc(S(C)(=O)=O)cc1 [Compound 228] | 4.528 | 2.12 | 4.5985 | 1.8 | – | – | –
10 | COc1ncc(NCc2ccns2)nc1-c1ccc(S(C)(=O)=O)cc1 [Compound 102] | 5.647 | 0.0875 | 5.572 | 0.103 | – | – | –
11 | CS(=O)(=O)c1ccc(-c2cccc([C@@H](O)Cc3cccs3)n2)cc1 [Compound 205] | 3.07 | 1.25 | 3.131 | 1.06 | – | – | –
12 | COc1ncc(NCc2sccc2C)nc1-c1ccc(S(C)(=O)=O)cc1 [Compound 62] | 4.781 | 0.0345 | 4.654 | 0.0405 | – | – | –
13 | C[C@H](Nc1cccc(-c2ccc(S(C)(=O)=O)cc2)n1)c1ccco1 (single isomer, unassigned) [Compound 89] | 3.84 | 0.0656 | 3.875 | 0.06 | – | – | –
14 | CC(=O)c1ncc(-c2ccc(S(C)(=O)=O)cc2)nc1NCc1cccs1 [Compound 207] | 3.8683 | 1.32 | 3.915 | 1.06 | – | – | –
15 | CS(=O)(=O)c1ccc(-n2ccc3ccc(OCc4cccs4)nc32)cc1 [Compound 122] | 2.212 | 0.127 | 2.325 | 0.095 | – | – | –
16 | Cn1nccc1CNc1cccc(-c2ccc(S(C)(=O)=O)cc2)n1 [Compound 197] | 3.969 | 0.951 | 4.01 | 0.832 | – | – | –
17 | CS(=O)(=O)c1ccc(-n2ccc3ccc(Nc4cccnc4)nc32)cc1 [Compound 238] | – | 2.66 | – | 3.28 | – | – | –
18 | CS(=O)(=O)c1ccc(-n2ncc3ccc(NCc4cccs4)nc32)cc1 [Compound 92] | – | 0.0686 | – | 0.0584 | – | – | –
19 | CS(=O)(=O)c1ccc(-c2cc3nn(Cc4cccs4)cc3cn2)cc1 [Compound 325] | – | – | – | – | 5.2 | – | –
20 | C[C@@H](Nc1cncc(-c2ccc(S(C)(=O)=O)cc2)n1)c1cccs1 [Compound 173] | 3.7158 | 0.452 | 3.9817 | 0.326 | – | 4.808 | 0.0384
21 | CO/N=C(/c1ccc2ccn(-c3ccc(S(C)(=O)=O)cc3)c2n1)c1cccs1 [Compound 214] | – | 1.51 | – | 1.19 | – | – | –
22 | CS(=O)(=O)c1ccc(-c2cncc(SC[C@H]3CCCO3)n2)cc1 (single isomer, unassigned) [Compound 154] | 4.687 | 0.315 | 4.726 | 0.295 | – | – | –
23 | CS(=O)(=O)c1ccc(-c2cncc(OCc3cncs3)n2)cc1 [Compound 138] | 4.957 | 0.202 | 4.957 | 0.198 | – | – | –
24 | CS(=O)(=O)c1ccc(-c2cncc(N3CCCC3)n2)cc1 [Compound 326] | – | – | 4.034 | – | 5.2 | 4.754 | 0.99
25 | CS(=O)(=O)c1ccc(-c2cc(NCc3ccoc3)ccn2)cc1 [Compound 242] | – | 3.01 | – | – | – | – | –
26 | Cc1ccc(CNc2cccc(-c3ccc(S(C)(=O)=O)cc3)n2)o1 [Compound 117] | 4.029 | 0.11 | 4.185 | 0.0615 | – | – | –
27 | COc1ccc(-c2ccc(S(C)(=O)=O)cc2)nc1NCc1cccs1 [Compound 160] | 3.162 | 0.385 | 3.174 | 0.361 | – | – | –
